# According to publication PMC2361662 (British Journal of Cancer, 2005):
# What was measured:
# [1] = system: EGFRvIII-expressing cells; set-up: method as in Montgomery, 2002; conditions: ref Montgomery, 2002; cited from earlier work
# [2] = system: LN229/EGFR cells; set-up: method as in Li et al (2003); conditions: ref Li et al (2003); cited from earlier work
# [3] = system: ERK; test: ERK phosphorylation, immunoblot; format: cell-based
# Experimental: (§1) For determination of phosphorylated proteins, 5 μg whole cell lysate from serum-starved cells was resolved by SDS–PAGE and electroblotted onto nitrocellulose membranes. After transfer and blocking in 5% nonfat milk, primary antibody staining was carried out by incubation overnight at 4°C, and secondary antibody staining was for 1 h at room temperature. The chemiluminescence detection method (ECL) was used for all Western blot experiments.
# (§2) Extracellular regulated kinase-1 and -2 (ERK-2), phospholipase C γ (PLC-γ), protein kinase B (AKT) and the signal transducer and activator of transcription 3 (STAT3) are all essential downstream targets of EGFR and mediate many of its oncogenic effects.
# (§3) Figure 3 (A) Phosphorylation of key signalling molecules upon EGF (10 nM for 10 min) stimulation in the four cell lines.
# [4] = system: STAT3; test: STAT3 phosphorylation, immunoblot; format: cell-based; conditions: NR6M cells (EGFRvIII-expressing)
# Experimental: as §1, §2, §3
smiles,measurement,setting,value
COc1cc2ncnc(Nc3cccc(Cl)c3)c2cc1OC [AG1478],Concentration that stimulated colony formation,[1],0.1 µM
COc1cc2ncnc(Nc3cccc(Br)c3)c2cc1OC [PD153035],Concentration that stimulated proliferation,[2],0.05 µM
COc1cc2ncnc(Nc3ccc(F)c(Cl)c3)c2cc1OCCCN1CCOCC1 [gefitinib],Effect on ERK phosphorylation,"[3]; NR6M cells, 0.1 μM gefitinib, after 48 and 72 h",increased
same,Response of ERK phosphorylations to gefitinib,"[3]; NR6W cells, up to the highest concentrations (2 μM)",unresponsive
same,Effect on background level of STAT3 phosphorylation,[4],no effect
